Data set [1] is described as follows: Solubility in low DMSO for electrophysiology. Type of data set: physicochemical. As to conditions: low concentrations of DMSO required for electrophysiology. As to the method:
Slices of rat spinal cord were transferred to a recording chamber and superfused with normal ACSF (2 ml·min^−1, 36° C.). […] PS2 was not soluble in the low concentrations of DMSO required for electrophysiology. Large, NKiR-positive, presumed nociceptive lamina I neurons were visually identified as described (Imlach, W. L., et al., Molecular Pharmacology, 2015, 88, 460-428). Spontaneous currents were recorded in cell-attached configuration (Multiclamp 700B, Molecular Devices, Sunnyvale, Calif.), sampled at 10 kHz, high pass filtered at 1 Hz, and capacitatively coupled action potential events were analyzed using Axograph X, V 1.4.4 (Axograph). […] Recordings were sampled at 10 kHz and filtered with a high pass filter at 1 Hz and firing rate was measured in two-minute interval bins. […] The firing time was determined as the duration of the response to last action potential. To assess synaptic transmission, whole-cell configuration recordings were made under control conditions or after exposure to Dy4 or Dy4 inact; a bipolar stimulating electrode was placed at the dorsal root entry zone, and electrically-evoked excitatory postsynaptic currents recorded as described (Imlach, W. L., et al., Molecular Pharmacology, 2015, 88, 460-428).

The target of another data set is T1, CLR plus RAMP1 (Homo sapiens, UniProt O60894+Q16602).
T1 construct: expressed in transfected cells; host or cells: HEK293 (transient)
T1 sequence (Q16602 23-461): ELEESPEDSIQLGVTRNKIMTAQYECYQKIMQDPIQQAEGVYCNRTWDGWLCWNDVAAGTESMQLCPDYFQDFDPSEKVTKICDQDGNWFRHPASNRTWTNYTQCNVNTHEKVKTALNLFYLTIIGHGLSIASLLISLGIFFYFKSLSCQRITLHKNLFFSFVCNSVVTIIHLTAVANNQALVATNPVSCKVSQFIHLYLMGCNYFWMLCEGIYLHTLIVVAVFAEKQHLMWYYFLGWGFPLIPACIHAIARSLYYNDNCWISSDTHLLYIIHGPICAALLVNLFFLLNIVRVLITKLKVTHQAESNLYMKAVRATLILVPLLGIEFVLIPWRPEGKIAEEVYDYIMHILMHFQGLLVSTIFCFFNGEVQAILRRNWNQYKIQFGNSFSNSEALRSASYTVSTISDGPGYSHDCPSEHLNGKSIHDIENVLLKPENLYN
T1 sequence (O60894 27-148): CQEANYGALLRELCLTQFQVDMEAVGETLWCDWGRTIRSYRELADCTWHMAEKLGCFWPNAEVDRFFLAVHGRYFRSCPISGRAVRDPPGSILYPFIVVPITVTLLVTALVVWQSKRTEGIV
Nature of the data set: FRET ERK biosensors in HEK293 cells expressing CLR plus RAMP1. It is filed as cell-based. As to conditions: endocytic inhibitor plus CGRP. On the procedure:
(§1) HEK293 cells were transfected with 55 ng/well rat NK1R with N-terminal HA. 11 epitope tag (HA-NK1R) or CLR plus RAMP1 and 40 ng/well FRET biosensors. FRET was assessed 48 h after transfection, following serum restriction (0.5% FBS overnight). For experiments using clathrin or dynamin siRNA, cells were transfected with 55 ng/well rat HA-NK1R, 40 ng/well FRET biosensor and 25 nM/well scrambled, clathrin or dynamin ON-TARGETplus SMARTpool siRNA (GE Dharmacon). FRET was assessed 72 h after transfection, following serum restriction (0.5% FBS overnight). Cells were equilibrated in HBSS at 37° C. and FRET was analyzed using a GE Healthcare INCell 2000 Analyzer. For GFP/RFP emission ratio analysis, cells were sequentially excited using a FITC filter (490/20) with emission measured using dsRed (605/52) and FITC (525/36) filters, and a polychroic optimized for the FITC/dsRed filter pair (Quad4). For CFP/YFP emission ratio analysis, cells were sequentially excited using a CFP filter (430/24) with emission measured using YFP (535/30) and CFP (470/24) filters, and a polychroic optimized for the CFP/YFP filter pair (Quad3). Cells were imaged every 1 min, allowing image capture of 14 wells per minute. Baseline emission ratio images were captured for 4 min. […] Data were analyzed as described and expressed as emission ratios relative to baseline for each cell (F/F0). […]

Data set [2] addresses T2, NK1R (Rattus norvegicus, UniProt P14600). The data set can be described thus: NK1R endocytosis in rat spinal cord slices. Type of data set: cell-based. As to conditions: Dy4 30 μM; SP 1 μM, 5 min.
The subject of data set [3] is NK1R. Nature of the data set: NK1R endocytosis in neurons of mouse dorsal horn. It is filed as in vivo. The following applies: intrathecal.
Another data set addresses T3, β2-adrenergic receptor (Homo sapiens, UniProt P07550).
T3 construct: endogenous in cells; host or cells: HEK293
The data set can be described thus: FRET nuclear ERK biosensor, isoprenaline-induced activation in HEK293 cells. The following applies: selectivity control, endogenous receptor. It is filed as cell-based. As to the method: as §1

Data set [4] can be described thus: Stability in the spinal cord after intrathecal injection to mice. Type of data set: in vivo, mouse. The following applies: 10 μM, 5 μl, spinal cord after 3 hours. As to the method: To assess stability in cerebrospinal fluid, spantide or Compound 1 (10 μg/ml) was incubated in human cerebrospinal fluid (0-4 h, 37° C.), and then snap frozen. Proteins were precipitated using ACN. To assess stability in the spinal cord, spantide or Compound 1 was injected intrathecally to mice (10 μM, 5 μl, L3/L4). After 3 hours, a spinal cord segment 5 mm on either side the injection site was removed and snap frozen. Tissues were crushed with a glass rod in a mixture of methanol (30 μl) and EDTA/KF (60 μl, 0.1 M EDTA, 4 g/l KF), vortexed and centrifuged to remove lipids. Peptides were extracted from the pellet with 0.5% formic acid in 75% ACN/H2O (100 μl). Samples were analyzed assayed by LC/MS using a Waters Xevo TQ or TQD triple quadrupole mass spectrometer coupled to a Waters UPLC. Peptides were separated by HPLC (Supelco Ascentis Express Peptide ES C18 column, 50×2.1 mm, 2.7 μm) with 0.05% formic acid in H2O and ACN as solvents. Peptides were quantified by comparison to calibration standards (50-50,000 ng/ml).

Data set [5] addresses T2, NK1R. Nature of the data set: SP-stimulated Ca2+ signaling in HEK-NK1R cells, antagonist mode. As to conditions: SP 3 nM (EC80), HEK-NK1R cells, 30 min pre-incubation; read-out: pIC50, antagonism of SP-stimulated Ca^2+ signaling (converted). Type of data set: cell-based. Also on record: Full length and truncated 6312 rat HA-NK1R have been described; expressed in transfected cells; host or cells: HEK293 (transient). As to the method: [Ca^2+]i was measured as described (Jensen, D. D. et al., J Biol Chem, 2014, 289, 20283-20294). HEK293 cells transiently expressing HA-NK1R or HA-CLR/Myc-RAMP1 were loaded with Fura2-AM (2 μM).

Where a SMILES comes first, the peptide text is derived from it. [ ]: non-standard residue; d: D form. The star is where a group is joined. X1 = CC(C)CCC[C@@H](C)[C@H]1CC[C@H]2[C@@H]3CC[C@H]4C[C@@H](O*)CC[C@]4(C)[C@H]3CC[C@]12C; PEG4 = NCCOCCOCCOCCOCCC(=O)O; PEG3 = NCCOCCOCCOCCC(=O)O

T2 sequence (P14600 whole entry): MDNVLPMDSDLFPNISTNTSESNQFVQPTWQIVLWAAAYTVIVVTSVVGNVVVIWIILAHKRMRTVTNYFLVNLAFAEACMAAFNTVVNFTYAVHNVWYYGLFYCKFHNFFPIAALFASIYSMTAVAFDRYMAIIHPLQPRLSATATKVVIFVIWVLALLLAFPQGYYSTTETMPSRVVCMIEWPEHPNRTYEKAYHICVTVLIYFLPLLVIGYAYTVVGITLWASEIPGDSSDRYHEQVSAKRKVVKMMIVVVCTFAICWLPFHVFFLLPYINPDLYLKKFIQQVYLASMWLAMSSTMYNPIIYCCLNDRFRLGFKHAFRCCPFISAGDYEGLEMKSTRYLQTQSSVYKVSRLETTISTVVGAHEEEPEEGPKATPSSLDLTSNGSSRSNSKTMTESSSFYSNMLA
T3 sequence (P07550 whole entry): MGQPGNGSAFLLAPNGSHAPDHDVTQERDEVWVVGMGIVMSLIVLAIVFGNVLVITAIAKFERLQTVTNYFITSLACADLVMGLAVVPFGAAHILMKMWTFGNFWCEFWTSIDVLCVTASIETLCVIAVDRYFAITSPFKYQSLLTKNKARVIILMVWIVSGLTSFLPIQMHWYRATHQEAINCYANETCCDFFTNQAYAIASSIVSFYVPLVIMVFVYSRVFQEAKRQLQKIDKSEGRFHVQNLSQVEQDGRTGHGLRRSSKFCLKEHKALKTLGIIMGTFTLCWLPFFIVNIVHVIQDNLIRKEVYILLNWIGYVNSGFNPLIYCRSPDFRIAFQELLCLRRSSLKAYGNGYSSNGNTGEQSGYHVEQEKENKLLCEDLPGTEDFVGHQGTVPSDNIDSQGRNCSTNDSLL

As to `O=C1NC(=NS(=O)(=O)c2cccc3ccccc23)S/C1=C\c1ccc(Br)cc1` [PS2], the solubility result in data set [1] was “not soluble”.
`O=C(N/N=C/c1cc(O)c(O)cc1O)c1cc2ccccc2cc1O` [Dy4]: on CLR plus RAMP1, the “effect on CGRP activation of cytosolic ERK” value was “prevented activation of nuclear but not cytosolic ERK” and the “effect on CGRP activation of nuclear ERK” value is “prevented activation of nuclear but not cytosolic ERK”. On NK1R [2], the “effect on SP-stimulated NK1R endocytosis in spinal cord slices” value was “prevented”. In the data set with NK1R [3], the “effect on capsaicin-, formalin- and CFA-evoked NK1R endocytosis in mouse dorsal horn neurons” value is listed as “inhibited”.
Take `CC(=O)N[C@@H](CC(=O)O[C@H]1CC[C@@]2(C)[C@@H](CC[C@@H]3[C@@H]2CC[C@]2(C)[C@@H]([C@H](C)CCCC(C)C)CC[C@@H]32)C1)C(=O)NCCOCCOCCOCCOCCC(=O)NCCOCCOCCOCCC(=O)NCCOCCOCCOCCOCCC(=O)N[C@H](CCCNC(=N)N)C(=O)N1CCC[C@H]1C(=O)N[C@@H](CCCCN)C(=O)N1CCC[C@H]1C(=O)N[C@@H](CCC(N)=O)C(=O)N[C@@H](CCC(N)=O)C(=O)N[C@H](Cc1c[nH]c2ccccc12)C(=O)N[C@@H](Cc1ccccc1)C(=O)N[C@H](Cc1c[nH]c2ccccc12)C(=O)N[C@@H](CC(C)C)C(=O)N[C@@H](CC(C)C)C(N)=O` [Compound 1] (Ac-D(X1)[PEG4][PEG3][PEG4][dR]PKPQQ[dW]F[dW]LL-NH2): at β2-adrenergic receptor, the “effect on isoprenaline-induced activation of nuclear ERK” value is reported as “did not affect”. Also, in data set [4], the “stability after intrathecal injection to mice” value is “stable”. Moreover, on NK1R [5], the IC50 was 3.63 nM.
